According to ChEMBL document CHEMBL2029223, “Identification of a phenylacylsulfonamide series of dual Bcl-2/Bcl-xL antagonists” (Bioorg Med Chem Lett, 2012):
Calls of active or inactive are those of the source. The rule behind the calls is not given here.

Tests used:
[1] = biological target: Apoptosis regulator Bcl-2 (Homo sapiens, UniProt P10415); test: Inhibition in GST-tagged Bcl2 using [FAM]-IWIAQELRRIGDEFNAYY-NH2 as substrate after 60 mins by fluorescence polarization assay
[2] = biological target: Bcl-2-like protein 1 (Homo sapiens, UniProt Q07817); test: Inhibition of Bcl-XL using fluoresceinated 18-mer Bim as substrate after 60 mins by FRET analysis
[3] = Antiproliferative activity against human SU-DHL4 cells after 72 hrs by Cell-Titer Glo assay in presence of 2% FBS; assay type: functional, cell-based, SUD4; conditions: SU-DHL-4, 72 h
[4] = system: MV4-11; test: Antiproliferative activity against human MV411 cells after 72 hrs by Cell-Titer Glo assay in presence of 2% FBS; assay type: functional, cell-based; conditions: MV4-11, 72 h
[5] = Antiproliferative activity against human SU-DHL4 cells after 72 hrs by Cell-Titer Glo assay in presence of 10% FBS; assay type: functional, cell-based, SUD4; conditions: SU-DHL-4, 72 h
[6] = system: MV4-11; test: Antiproliferative activity against human MV411 cells after 72 hrs by Cell-Titer Glo assay in presence of 10% FBS; assay type: functional, cell-based; conditions: MV4-11, 72 h
[7] = system: SUD4; test: Induction of apoptosis in human SU-DHL4 cells assessed as cytochrome c release at 10 uM after 24 hrs by Western blot analysis; assay type: functional, cell-based
[8] = system: SUD4; test: Induction of apoptosis in human SU-DHL4 cells assessed as BAK oligomerization at 10 uM after 24 hrs by Western blot analysis; assay type: functional, cell-based
[9] = system: SUD4; test: Induction of apoptosis in human SU-DHL4 cells assessed as cytochrome c release at 0.1 to 10 uM after 24 hrs by Western blot analysis; assay type: functional, cell-based
[10] = system: SUD4; test: Induction of apoptosis in human SU-DHL4 cells assessed as BAK oligomerization at 0.1 to 10 uM after 24 hrs by Western blot analysis; assay type: functional, cell-based

Sequence of Apoptosis regulator Bcl-2 (P10415 whole entry): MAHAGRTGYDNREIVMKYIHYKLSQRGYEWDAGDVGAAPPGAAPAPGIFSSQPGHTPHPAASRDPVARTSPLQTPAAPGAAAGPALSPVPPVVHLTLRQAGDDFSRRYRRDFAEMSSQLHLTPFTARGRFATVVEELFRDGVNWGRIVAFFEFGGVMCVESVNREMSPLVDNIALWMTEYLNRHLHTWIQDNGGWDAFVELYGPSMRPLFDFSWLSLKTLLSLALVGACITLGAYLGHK
Sequence of Bcl-2-like protein 1 (Q07817 whole entry): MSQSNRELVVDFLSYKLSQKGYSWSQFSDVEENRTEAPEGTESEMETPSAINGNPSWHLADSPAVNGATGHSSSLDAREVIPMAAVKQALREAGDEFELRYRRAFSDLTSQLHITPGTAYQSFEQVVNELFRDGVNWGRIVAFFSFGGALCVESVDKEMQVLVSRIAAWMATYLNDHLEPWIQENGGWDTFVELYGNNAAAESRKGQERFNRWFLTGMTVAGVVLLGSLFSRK

CCCCN(CCCC)C(=O)c1nn(-c2ccc(C(=O)NS(=O)(=O)c3ccc4ccccc4c3)cc2C(=O)N2Cc3ccccc3C[C@H]2CN2CCOCC2)c(C)c1Cl gave an IC50 [1] of 14 nM, an IC50 [2] of 16 nM and an IC50 [3] of 6300 nM. The IC50 [4] was 3000 nM, the IC50 [5] was over 10000 nM and the IC50 [6] was over 10000 nM.

CCCCN(CCCC)C(=O)c1nn(-c2ccc(C(=O)NS(=O)(=O)c3ccc4ccccc4c3)cc2C(=O)N2Cc3ccccc3C[C@H]2COCCN(C)C)c(C)c1Cl gave an IC50 [1] of 37 nM and an IC50 [2] of 47 nM.

With CCCCN(CCCC)C(=O)c1nn(-c2ccc(C(=O)NS(=O)(=O)c3ccc4c(c3)CCN4Cc3ccc(Cl)c(Cl)c3)cc2C(=O)N2CCc3ccccc3C2)c(C)c1Cl the IC50 [1] was 16 nM, the IC50 [2] was 44 nM and the Activity [7] was “Active”. For the same molecule, the Activity [8] was “Active”, the IC50 [3] was over 10000 nM and the IC50 [4] was over 10000 nM. The IC50 [5] was over 10000 nM and the IC50 [6] was over 10000 nM.

Work on CCCCN(CCCC)C(=O)c1nn(-c2ccc(C(=O)NS(=O)(=O)c3ccc4ccccc4c3)cc2C(=O)N2COc3ccccc3C2)c(C)c1Cl yielded an IC50 [2] of 62 nM.

For CCCCN(CCCC)C(=O)c1nn(-c2ccc(C(=O)NS(=O)(=O)c3ccc4ccccc4c3)cc2C(=O)N2Cc3ccccc3C[C@H]2COCCCOC)c(C)c1Cl, the IC50 [1] was 22 nM, the IC50 [2] was 29 nM and the IC50 [3] was 5400 nM. For the same molecule, the IC50 [4] was 2800 nM, the IC50 [5] was over 10000 nM and the IC50 [6] was over 10000 nM.

With CCCCN(CCCC)C(=O)c1nn(-c2ccc(C(=O)NS(=O)(=O)c3ccc4c(c3)CCN4CC)cc2C(=O)N2CCc3ccccc3C2)c(C)c1Cl the IC50 [1] was 78 nM and the IC50 [2] was 17 nM.

Molecule CCCCN(CCCC)C(=O)c1nn(-c2ccc(C(=O)NS(=O)(=O)c3ccc4c(c3)CCN4C(=O)c3ccc(Cl)c(Cl)c3)cc2C(=O)N2CCc3ccccc3C2)c(C)c1Cl has an IC50 [1] of 280 nM and an IC50 [2] of 550 nM.

For CCCCN(CCCC)C(=O)c1nn(-c2ccc(C(=O)NS(=O)(=O)c3ccc4ccc(OCCN5CCOCC5)cc4c3)cc2C(=O)N2CCc3ccccc3C2)c(C)c1Cl, the IC50 [1] was 400 nM and the IC50 [2] was 54 nM.

For CCCCN(CCCC)C(=O)c1nn(-c2ccc(C(=O)NS(=O)(=O)c3ccc4ccccc4c3)cc2C(=O)N2Cc3ccccc3C[C@H]2CN2CCN(C)CC2)c(C)c1Cl, the IC50 [1] was 140 nM, the IC50 [2] was 22 nM and the IC50 [3] was 9700 nM. It also gave an IC50 [4] of 4800 nM, an IC50 [5] of over 10000 nM and an IC50 [6] of over 10000 nM.

CCCCN(CCCC)C(=O)c1nn(-c2ccc(C(=O)NS(=O)(=O)c3ccc4c(c3)CCN4)cc2C(=O)N2CCc3ccccc3C2)c(C)c1Cl gave an IC50 [1] of 32 nM and an IC50 [2] of 23 nM.

In the case of CCCCN(CCCC)C(=O)c1nn(-c2ccc(C(=O)NS(=O)(=O)c3ccc4ccccc4c3)cc2C(=O)N2Cc3ccccc3C[C@H]2CN)c(C)c1Cl, the IC50 [1] is reported as 9 nM, the Activity [9] is reported as “Active” and the Activity [10] is reported as “Active”. The IC50 [3] was over 10000 nM, the IC50 [4] was 8500 nM and the IC50 [5] was over 10000 nM. The IC50 [6] was over 10000 nM.

CCCCN(CCCC)C(=O)c1nn(-c2ccc(C(=O)NS(=O)(=O)c3ccc4ccccc4c3)cc2C(=O)N2Cc3ccccc3C[C@H]2CN2CCCC2)c(C)c1Cl gave an IC50 [1] of 47 nM, an IC50 [2] of 19 nM and an IC50 [3] of 1800 nM. For the same molecule, the IC50 [4] was 1500 nM, the IC50 [5] was over 10000 nM and the IC50 [6] was over 10000 nM.

With CCCCN(CCCC)C(=O)c1nn(-c2ccc(C(=O)NS(=O)(=O)c3ccc4cccc(OCCN5CCOCC5)c4c3)cc2C(=O)N2CCc3ccccc3C2)c(C)c1Cl the IC50 [2] was 41 nM.

Work on CCCCN(CCCC)C(=O)c1nn(-c2ccc(NS(=O)(=O)c3cc(Cl)cc(Cl)c3O)cc2C(=O)N2CCc3ccccc3C2)c(C)c1Cl yielded an IC50 [1] of 910 nM and an IC50 [2] of 4300 nM.

Molecule CCCCN(CCCC)C(=O)c1nn(-c2ccc(C(=O)NS(=O)(=O)c3ccc4ccccc4c3)cc2C(=O)N2CNc3ccccc3C2)c(C)c1Cl has an IC50 [1] of 26 nM and an IC50 [2] of 26 nM.

CCCCN(CCCC)C(=O)c1nn(-c2ccc(C(=O)NS(=O)(=O)c3ccc4cccc(S(=O)(=O)CC)c4c3)cc2C(=O)N2CCc3ccccc3C2)c(C)c1Cl gave an IC50 [1] of 180 nM and an IC50 [2] of 150 nM.

CCCCN(CCCC)C(=O)c1nn(-c2ccc(C(=O)NS(=O)(=O)c3ccc4ccccc4c3)cc2C(=O)N2CCc3ccccc3C2)c(C)c1Cl showed an IC50 [1] of 32 nM and an IC50 [2] of 24 nM.

O=C(c1ccc(CN(Cc2ccc(F)cc2)S(=O)(=O)c2cc(Cl)cc(Cl)c2O)cc1)N(Cc1ccc(F)cc1)Cc1cc(Cl)cc(Cl)c1 showed an IC50 [1] of 35 nM and an IC50 [2] of over 30000 nM.

Work on CCCCN(CCCC)C(=O)c1nn(-c2ccc(C(=O)NS(=O)(=O)c3ccc4cccc(OCc5ccc(C(=O)O)cc5)c4c3)cc2C(=O)N2CCc3ccccc3C2)c(C)c1Cl yielded an IC50 [1] of 15 nM and an IC50 [2] of 17 nM.

In the case of CCCCN(CCCC)C(=O)c1nn(-c2ccc(C(=O)NS(=O)(=O)c3ccc4ccccc4c3)cc2C(=O)N2Cc3ccccc3C[C@H]2CO)c(C)c1Cl, the IC50 [1] is reported as 35 nM, the Activity [9] is reported as “Active” and the Activity [10] is reported as “Active”. The IC50 [3] was over 10000 nM, the IC50 [4] was over 10000 nM and the IC50 [5] was over 10000 nM. The IC50 [6] was over 10000 nM.

CCCCN(CCCC)C(=O)c1nn(-c2ccc(C(=O)NS(=O)(=O)c3ccc4ccc(I)cc4c3)cc2C(=O)N2CCc3ccccc3C2)c(C)c1Cl gave an IC50 [2] of 47 nM.

In the case of CCCCN(CCCC)C(=O)c1nn(-c2ccc(C(=O)NS(=O)(=O)c3ccc4ccccc4c3)cc2C(=O)N2CCc3ccccc3C2C)c(C)c1Cl (stereo not given), the IC50 [1] is reported as 710 nM and the IC50 [2] is reported as 590 nM.

For CC1(C)CCC(c2ccc(Cl)cc2)=C(CN2CCN(c3ccc(C(=O)NS(=O)(=O)c4ccc(N[C@H](CCN5CCOCC5)CSc5ccccc5)c(S(=O)(=O)C(F)(F)F)c4)cc3)CC2)C1, the Activity [9] was “Active” and the Activity [10] was “Active”.
